Columns and labels:
[1] = system: HIF-2a (HRE-luciferase, 7H4 cells); assay: HRE-luciferase reporter assay in 786-O derived 7H4 cells; format: cell-based, human; conditions: 786-O cells, 24 hours
Procedure: The screen for small molecule inhibitors was performed in the Institute for Chemical and Cellular biology, Harvard Medical School. 7SV or 7H4 cells were plated onto 384-well plates. The next day compounds were added robotically to the medium, to a final concentration of approximately 10 μM. 24 hours later, media was aspirated and Passive Lysis Buffer (Promega) and Luciferase Assay Reagent II (Promega) were added. Luciferase activity was measured with an Analyst plate reader (LJL Biosystems). All experiments were performed in duplicate and the identity of lead compounds was confirmed by mass spectroscopy
Luciferase assays were performed using the Promega's Dual-luciferase Assay Reporter System (Promega, E1910) according to the manufacturer's instructions. Counts obtained from transient transfections were normalized for co-transfected Renilla luciferase. Stable clones were normalized to medium only treated wells.
Functionally validated HRE and control SV40 luciferase reporter constructs were stably introduced into VHL-deficient 786-O cells to generate 7H4 and 7SV lines, respectively (see FIG. 8A). These lines were used to screen five commercial small molecule libraries (NCI Diversity Set, Chembridge, Maybridge, CEREP and Peakdale) and the ICCB Diversity-Oriented Synthesis (DOS) Diversity Set 2 (DDS2) and serine-derived peptidomimetic (SDP1) collections, totaling 58,000 compounds.
786-O cells were untreated (M, for medium only), mock-treated (D, for DMSO) or treated with compounds for two days before assaying for normalized luciferase activity. The resulting dose response curves are shown along with the compound structures in FIGS. 1A-1H).
To validate the connectivity map-derived prediction that PGJ2 is involved in HIF signaling, the inventors treated HRE-luciferase expressing 786-O cells (7H4) and SV40-luciferase expressing control cells (7SV) with increasing doses of PGJ2.

NFkB = assay: TransAM NFkB ELISA; format: cell-based, human; conditions: 786-O cells, 5uM, 24 hours
Procedure: Experiments were performed in triplicate. Error bars represent Standard Error of the Mean (SEM).

HIF = conditions: published; cited from earlier work
[2] = system: HIF-2a 5′-UTR Iron-Responsive Element (IRE); assay: Luciferase reporters with HIF-2a 5′-UTR / IRE in 786-O cells; format: cell-based, human; conditions: 10 μM, normoxia and hypoxia
[3] = system: iron (Fe-(EDHB)3 complex); assay: In vitro iron competition assay; conditions: 0-200 micromolars, absorbance at 500 nm
Procedure: This assay was performed similarly to that described previously (Wang et al., 2002). Briefly, displacement of iron from ethyl-3,4-dihydroxybenzoate (EDHB) complex was measured as a decrease in absorbance at 500 nm. Ferric iron, prepared as a 5 mM stock solution of FeC13 in 100 mM sodium citrate, was diluted to 25 μM in the presence of 750 μM EDHB. 1 ml aliquots of this solution were then mixed with 0, 25, 50, 100 or 200 micromolars of compounds 40, 41, 76, and 77 as well as EDTA and DFO for controls. […] The self absorbance of compound 41 in a matched solution lacking Fe-(EDHB)3 was subtracted from the A500 value obtained in the presence of the Fe-(EDHB)3 complex.
The inventors next directly tested whether the compounds bind iron by performing a competition assay in which the displacement of iron from ethyl-3,4-dihydroxybenzoate (EDHB), a weakly chelating ester, was measured as a decrease in absorbance at 500 nm. […] In addition, the inventors utilized the Connectivity Map to look for similarities between the induced gene expression signatures of low and high dose DFO and compound treated cells (Lamb et al., 2006). Using this bioinformatic approach, the inventors discovered no significant similarity between the gene expression profile of the compounds and low (chelating) DFO dose, while there was a negative correlation between compound effect and high (HIF stabilizing) DFO dose (see FIG. 13).

[4] = target: T1, IRP2 binding to Ferritin-L IRE (Homo sapiens, UniProt P48200); assay: Electrophoretic mobility shift assay, Ferritin L IRE probe; conditions: 786-O lysates, EMSA
T1 construct: when expressed in endogenous levels; endogenous in cells; host or cells: 786-O
Procedure: EMSAs were performed as described previously (Fillebeen et al., 2003). Briefly, 50 μg lysate from 786-O cells treated with medium only, DMSO, or compounds were incubated with 25,000 cpm wild-type or mutant radiolabeled HIF-2a IRE probe for 20 minutes at room temperature before loading onto non-denaturing acrylamide gels. Supershifts were performed identically, save that 0.2 μg control, IRP1 or IRP2 antibodies were also added. Total protein content was estimated by Bradford Assay (BioRad, 500-0006), and even loading for all experiments was confirmed by Western blot for B-Actin.
Inventors discovered that compound 76 increased the residual amount of IRP1 bound to the HIF-2a IRE in hypoxia, although not to the same extent as that observed in normoxic cells. […] Lastly, to further investigate the involvement of IRP2 in HIF-2a IRE, the inventors compared side by side IRP2 binding to HIF-2a and Ferritin-L IRE in 786-O cells, in conditions of normoxia or hypoxia and after treatment with compound 76 or DFO (FIG. 7E). While IRP2 binding was clearly detected on Ferritin IRE, the inventors were not able to detect measurable IRP2 binding on HIF-2a IRE.

T1 sequence (P48200 whole entry): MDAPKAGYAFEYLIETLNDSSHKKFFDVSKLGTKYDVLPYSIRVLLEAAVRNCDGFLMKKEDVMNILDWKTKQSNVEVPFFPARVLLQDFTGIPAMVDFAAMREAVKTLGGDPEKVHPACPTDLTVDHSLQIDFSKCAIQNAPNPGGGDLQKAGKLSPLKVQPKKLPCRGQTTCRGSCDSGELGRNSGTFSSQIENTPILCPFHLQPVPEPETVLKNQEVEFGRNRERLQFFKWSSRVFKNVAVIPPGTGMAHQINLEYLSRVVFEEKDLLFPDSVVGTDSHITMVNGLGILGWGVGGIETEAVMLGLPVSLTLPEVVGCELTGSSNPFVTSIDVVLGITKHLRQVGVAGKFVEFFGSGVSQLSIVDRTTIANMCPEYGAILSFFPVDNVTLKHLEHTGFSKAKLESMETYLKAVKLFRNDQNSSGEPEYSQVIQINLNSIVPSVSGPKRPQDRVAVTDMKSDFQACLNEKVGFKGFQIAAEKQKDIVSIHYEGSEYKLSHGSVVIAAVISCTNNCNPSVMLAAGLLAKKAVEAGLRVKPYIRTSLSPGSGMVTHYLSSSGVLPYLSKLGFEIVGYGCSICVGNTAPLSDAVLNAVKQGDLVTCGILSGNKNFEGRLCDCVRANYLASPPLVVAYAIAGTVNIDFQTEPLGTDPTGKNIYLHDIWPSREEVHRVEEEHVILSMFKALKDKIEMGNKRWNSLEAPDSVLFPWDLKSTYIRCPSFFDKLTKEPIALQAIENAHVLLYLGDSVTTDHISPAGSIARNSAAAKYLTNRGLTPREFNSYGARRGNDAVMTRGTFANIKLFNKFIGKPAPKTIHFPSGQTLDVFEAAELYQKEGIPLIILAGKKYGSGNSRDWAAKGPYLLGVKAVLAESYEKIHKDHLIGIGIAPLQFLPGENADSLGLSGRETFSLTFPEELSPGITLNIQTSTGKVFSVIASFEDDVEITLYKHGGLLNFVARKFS

Compound | Mechanism of HIF inhibtion (HIF) | Biological Activities (HIF) | further results
Cc1ccc2nc(NCCN)c3ncc(C)n3c2c1 [BMS-345541, reference compound] |  |  | HRE-luciferase activity [1]: did not alter the HRE-luciferase activity; basal NFkB activity (NFkB): basal NFkB activity is suppressed
COc1ccc2cc3[n+](cc2c1OC)CCc1cc2c(cc1-3)OCO2 [Berberine] | HIF degradation |  | 
CC(C)(c1ccc(O)cc1)c1ccc(O)cc1 [Bisphenol] | HIF degradation |  | 
COc1cc2c(cc1O)CC[C@@H]1[C@@H]2CC[C@]2(C)[C@@H](O)CC[C@@H]12 [Compound 2-ME2] | Post-transcriptional | Inhibits HUVEC | 
CC(=O)N(O)CCCCCNC(=O)CCC(=O)N(O)CCCCCNC(=O)CCC(=O)N(O)CCCCCN [DFO, reference compound] |  |  | HIF-2a IRE luciferase reporter activity [2]: repressed reporter activity and diminished the effect of hypoxia; displacement of iron from EDHB complex (iron chelation) [3]: readily displaced iron from EDHB; binding of IRP2 to Ferritin-L IRE [4]: slightly enhanced
O=C(O)CN(CCN(CC(=O)O)CC(=O)O)CC(=O)O [EDTA, reference compound] |  |  | displacement of iron from EDHB complex (iron chelation) [3]: readily displaced iron from EDHB
COc1cc([C@@H]2c3cc4c(cc3[C@@H](Nc3ccc([N+](=O)[O-])cc3)[C@H]3COC(=O)[C@H]23)OCO4)cc(OC)c1O [GL331] | Protein levels | Inhibits HUVEC | 
CCC(C)SSc1ncc[nH]1 (stereo not drawn) [PX-12] |  | Tumor suppression | 
OCc1ccc(-c2nn(Cc3ccccc3)c3ccccc23)o1 [YC-1] | HIF protein levels | VEGF decrease/tumor | 
